# According to patent publication US20230330077A1, “USE OF SPHINGOSINE-1-PHOSPHATE RECEPTOR AGONIST” (LG CHEM, LTD., priority 2020, published 2023):
# Tests used:
# [1] = test system: oxazolone-induced animal model of atopic dermatitis; assay: oxazolone-induced animal model of atopic dermatitis in mice; type: in vivo, mice (Balb/c); details: Example 4, Table 3; for Therapeutic effect (Compared to disease-induced group): Ear thickness (Day 21 after administration): reduction in ear thickness
# [2] = test system: oxazolone-induced animal model of atopic dermatitis; assay: as above; type: in vivo, mice (Balb/c)
# Protocol: An animal model of atopic dermatitis was induced in mice (Balb/c) by the use of oxazolone. With the first sensitization day of oxazolone set as day 0, it was administered orally or transdermally starting on day 7 once a day. When the date of application of oxazolone and the date of administration of the drug were overlapped, the drug was administered about 6 hours after application of oxazolone.
# For all mice, abdominal hair was removed one day before the first application of oxazolone. Then, 1% or 0.2% oxazolone was prepared by the use of a 4:1 ratio of acetone/corn oil, and sensitization and induction on the shaved mouse abdomen and both ears were performed with the same dose and schedule as represented in Table 1 and FIG. 1.
# The test substances (the Test Compound and dexamethasone as a positive control) were prepared for each administration dose as represented in Table 2 below by the use of 0.5% methyl cellulose. In the case of the Test Compound, it was prepared in consideration of the HCl salt form. The test substances were dissolved in 0.5% methyl cellulose and then sonicated.
# The test substances were prepared by dissolving them at the concentration of 0.1% (w/v) in a solution (PEG400:100% ethanol=1:1). 5 mL of PEG400 was added to 10 mg of the test substances and sonicated. When they were dissolved to some extent, 5 mL of 100% ethanol was added thereto and sonicated to dissolve them completely. In addition, the vehicle and the test substances were prepared fresh every day and used.
# [3] = Example 4, Table 3, oral administration 1 mg/kg once a day, reduction in ear thickness
# [4] = Example 4, Table 3, oral administration 1 mg/kg once a day, reduction in ear weight after autopsy
# [5] = Example 4, Table 3, oral administration 1 mg/kg once a day, reduction in epidermal thickness
# [6] = Example 4, Table 3, oral administration 1 mg/kg once a day, reduction in the blood level of IgE
# [7] = Example 5 comparative experimentation, Table 4, oral administration 0.1 mg/kg
# [8] = Example 5 comparative experimentation, Table 4, oral administration 0.3 mg/kg
# [9] = Example 5 comparative experimentation, Table 4, oral administration 1 mg/kg
# [10] = Example 5 comparative experimentation, Table 4, oral administration 1 mg/kg, blood level of IgE
structure (smiles),measurement,setting,value
"CC(C)n1nc(Cl)c2cc(COc3ccc4c(c3)CCC(CN3CCC(C(=O)O)CC3)=C4Cl)ccc21 [Test Compound, 1-[1-Chloro-6-(3-chloro-1-isopropyl-1H-indazol-5-ylmethoxy)-3,4-dihydro-naphthalen-2-ylmethyl]-piperidine-4-carboxylic acid]",Therapeutic effect (Compared to disease-induced group): Ear thickness (Day 21 after administration),[1]; topical administration 0.01% once a day,63%
same,Therapeutic effect (Compared to disease-induced group): Epidermal thickness of ear tissue (Day 21 after administration),"[1]; topical administration 0.01% once a day, reduction in epidermal thickness",26%
same,Therapeutic effect (Compared to disease-induced group): Ear thickness (Day 21 after administration),[1]; topical administration 0.03% once a day,71%
same,Therapeutic effect (Compared to disease-induced group): IgE (Day 21 after administration),"[1]; topical administration 0.03% once a day, reduction in the blood level of IgE",74%
same,Therapeutic effect (Compared to disease-induced group): Ear thickness (Day 21 after administration),"[2]; Example 4, Table 3, oral administration 0.1 mg/kg once a day, reduction in ear thickness",37%
same,Therapeutic effect (Compared to disease-induced group): Ear weight (Day 21 after administration),"[2]; Example 4, Table 3, oral administration 0.1 mg/kg once a day, reduction in ear weight after autopsy",−2%
same,Therapeutic effect (Compared to disease-induced group): Epidermal thickness of ear tissue (Day 21 after administration),"[2]; Example 4, Table 3, oral administration 0.1 mg/kg once a day, reduction in epidermal thickness",25%
same,Therapeutic effect (Compared to disease-induced group): Mast cell accumulation (Day 21 after administration),"[2]; Example 4, Table 3, oral administration 0.1 mg/kg once a day, reduction in mast cell accumulation, ear tissue",21%
same,Therapeutic effect (Compared to disease-induced group): IgE (Day 21 after administration),"[2]; Example 4, Table 3, oral administration 0.1 mg/kg once a day, reduction in the blood level of IgE",−56%
same,Therapeutic effect (Compared to disease-induced group): Ear thickness (Day 21 after administration),"[2]; Example 4, Table 3, oral administration 0.3 mg/kg once a day, reduction in ear thickness",63%
same,Therapeutic effect (Compared to disease-induced group): Ear weight (Day 21 after administration),"[2]; Example 4, Table 3, oral administration 0.3 mg/kg once a day, reduction in ear weight after autopsy",48%
same,Therapeutic effect (Compared to disease-induced group): Epidermal thickness of ear tissue (Day 21 after administration),"[2]; Example 4, Table 3, oral administration 0.3 mg/kg once a day, reduction in epidermal thickness",56%
same,Therapeutic effect (Compared to disease-induced group): Mast cell accumulation (Day 21 after administration),"[2]; Example 4, Table 3, oral administration 0.3 mg/kg once a day, reduction in mast cell accumulation, ear tissue",34%
same,Therapeutic effect (Compared to disease-induced group): IgE (Day 21 after administration),"[2]; Example 4, Table 3, oral administration 0.3 mg/kg once a day, reduction in the blood level of IgE",38%
same,Therapeutic effect (Compared to disease-induced group): Ear thickness (Day 21 after administration),[2]; [3],61%
same,Therapeutic effect (Compared to disease-induced group): Ear weight (Day 21 after administration),[2]; [4],53%
same,Therapeutic effect (Compared to disease-induced group): Epidermal thickness of ear tissue (Day 21 after administration),[2]; [5],61%
same,Therapeutic effect (Compared to disease-induced group): Mast cell accumulation (Day 21 after administration),"[2]; Example 4, Table 3, oral administration 1 mg/kg once a day, reduction in mast cell accumulation, ear tissue",29%
same,Therapeutic effect (Compared to disease-induced group): IgE (Day 21 after administration),[2]; [6],44%
same,Therapeutic effect (Compared to disease-induced group): Ear weight (Day 21 after administration),"[2]; Example 4, Table 3, topical administration 0.01% once a day, reduction in ear weight after autopsy",65%
same,Therapeutic effect (Compared to disease-induced group): Mast cell accumulation (Day 21 after administration),"[2]; Example 4, Table 3, topical administration 0.01% once a day, reduction in mast cell accumulation, ear tissue",42%
same,Therapeutic effect (Compared to disease-induced group): IgE (Day 21 after administration),"[2]; Example 4, Table 3, topical administration 0.01% once a day, reduction in the blood level of IgE",43%
same,Therapeutic effect (Compared to disease-induced group): Ear weight (Day 21 after administration),"[2]; Example 4, Table 3, topical administration 0.03% once a day, reduction in ear weight after autopsy",72%
same,Therapeutic effect (Compared to disease-induced group): Epidermal thickness of ear tissue (Day 21 after administration),"[2]; Example 4, Table 3, topical administration 0.03% once a day, reduction in epidermal thickness",55%
same,Therapeutic effect (Compared to disease-induced group): Mast cell accumulation (Day 21 after administration),"[2]; Example 4, Table 3, topical administration 0.03% once a day, reduction in mast cell accumulation, ear tissue",59%
same,Therapeutic effect (Compared to disease-induced group): Ear thickness (Day 21 after administration),"[2]; Example 4, Table 3, topical administration 0.1% once a day, reduction in ear thickness",69%
same,Therapeutic effect (Compared to disease-induced group): Ear weight (Day 21 after administration),"[2]; Example 4, Table 3, topical administration 0.1% once a day, reduction in ear weight after autopsy",69%
same,Therapeutic effect (Compared to disease-induced group): Epidermal thickness of ear tissue (Day 21 after administration),"[2]; Example 4, Table 3, topical administration 0.1% once a day, reduction in epidermal thickness",58%
same,Therapeutic effect (Compared to disease-induced group): Mast cell accumulation (Day 21 after administration),"[2]; Example 4, Table 3, topical administration 0.1% once a day, reduction in mast cell accumulation, ear tissue",70%
same,Therapeutic effect (Compared to disease-induced group): IgE (Day 21 after administration),"[2]; Example 4, Table 3, topical administration 0.1% once a day, reduction in the blood level of IgE",71%
same,overall effect in the oxazolone-induced animal model of atopic dermatitis versus positive control,"[2]; Example 4, summary of Table 3 and FIGS. 2 to 6",superior effect in a dose-dependent manner compared to dexamethasone
same,overall effect in the animal model of atopic dermatitis versus comparative compound,"[2]; Example 5, summary of Table 4 and FIG. 7","equal or superior effects even at lower doses compared to the comparative compound, etrasimod"
same,Therapeutic effect (Compared to disease-induced group): Ear thickness (Day 21 after administration),[2]; [7],14%
same,Therapeutic effect (Compared to disease-induced group): Ear weight (Day 21 after administration),[2]; [7],31%
same,Therapeutic effect (Compared to disease-induced group): Epidermal thickness of ear tissue (Day 21 after administration),[2]; [7],21%
same,Therapeutic effect (Compared to disease-induced group): Mast cell accumulation (Day 21 after administration),[2]; [7],27%
same,Therapeutic effect (Compared to disease-induced group): IgE (Day 21 after administration),"[2]; Example 5 comparative experimentation, Table 4, oral administration 0.1 mg/kg, blood level of IgE",31%
same,Therapeutic effect (Compared to disease-induced group): Ear thickness (Day 21 after administration),[2]; [8],29%
same,Therapeutic effect (Compared to disease-induced group): Ear weight (Day 21 after administration),[2]; [8],55%
same,Therapeutic effect (Compared to disease-induced group): Epidermal thickness of ear tissue (Day 21 after administration),[2]; [8],42%
same,Therapeutic effect (Compared to disease-induced group): Mast cell accumulation (Day 21 after administration),[2]; [8],35%
same,Therapeutic effect (Compared to disease-induced group): IgE (Day 21 after administration),"[2]; Example 5 comparative experimentation, Table 4, oral administration 0.3 mg/kg, blood level of IgE",46%
same,Therapeutic effect (Compared to disease-induced group): Ear thickness (Day 21 after administration),[2]; [9],42%
same,Therapeutic effect (Compared to disease-induced group): Ear weight (Day 21 after administration),[2]; [9],69%
same,Therapeutic effect (Compared to disease-induced group): Epidermal thickness of ear tissue (Day 21 after administration),[2]; [9],44%
same,Therapeutic effect (Compared to disease-induced group): Mast cell accumulation (Day 21 after administration),[2]; [9],43%
same,Therapeutic effect (Compared to disease-induced group): IgE (Day 21 after administration),[2]; [10],72%
"O=C(O)C[C@H]1CCc2c1[nH]c1ccc(OCc3ccc(C4CCCC4)c(C(F)(F)F)c3)cc21 [etrasimod, 2-[(3R)-7-[[4-cyclopentyl-3-(trifluoromethyl)phenyl]methoxy]-1,2,3,4-tetrahydrocyclopenta[b]indol-3-yl] acetic acid, reference compound]",Therapeutic effect (Compared to disease-induced group): Ear thickness (Day 21 after administration),[2]; [9],32%
same,Therapeutic effect (Compared to disease-induced group): Ear weight (Day 21 after administration),[2]; [9],50%
same,Therapeutic effect (Compared to disease-induced group): Epidermal thickness of ear tissue (Day 21 after administration),[2]; [9],36%
same,Therapeutic effect (Compared to disease-induced group): Mast cell accumulation (Day 21 after administration),[2]; [9],28%
same,Therapeutic effect (Compared to disease-induced group): IgE (Day 21 after administration),[2]; [10],47%
"C[C@@H]1C[C@H]2[C@@H]3CCC4=CC(=O)C=C[C@]4(C)[C@@]3(F)[C@@H](O)C[C@]2(C)[C@@]1(O)C(=O)CO [Dexamethasone, dexamethasone, reference compound]",Therapeutic effect (Compared to disease-induced group): Ear thickness (Day 21 after administration),[2]; [3],66%
same,Therapeutic effect (Compared to disease-induced group): Ear weight (Day 21 after administration),[2]; [4],54%
same,Therapeutic effect (Compared to disease-induced group): Epidermal thickness of ear tissue (Day 21 after administration),[2]; [5],55%
same,Therapeutic effect (Compared to disease-induced group): IgE (Day 21 after administration),[2]; [6],12%
